Values quoted from earlier work as cited in patent US10325677B2, “Apparatus and computerized method for optimizing or generating a sigma profile for a molecule” (Texas Tech University System, priority 2014, dated 2019).

Details: published in the literature

NRTL-SAC Conceptual Segment Number X: −0.105
NRTL-SAC Conceptual Segment Number Y^+: 1.211
NRTL-SAC Conceptual Segment Number Y^−: 0.282
NRTL-SAC Conceptual Segment Number Z: 0.211
Compound: Cn1c(=O)c2c(ncn2C)n(C)c1=O [Caffeine, caffeine]
